Test results reported in the supplement of paper PMC13380429.

Key:
[1] = system: A549-ACE2 infected with SARS-CoV-2; experiment: cell count relative to DMSO; higher = less toxic; details: 24 h
A549-ACE2 [2] = experiment: drug-induced phospholipidosis relative to tamoxifen; higher = more phospholipidosis
A549-ACE2 [3] = experiment: phospholipidosis EC50; higher = less potent phospholipidosis inducer
Vero E6 [4] = experiment: drug sensitivity score (DSS) for viability; higher = more toxic; extreme values may be limits of the assay; details: 72 h
HepG2 [5] = experiment: as above; details: 72 h
Calu-3 [6] = experiment: as above; details: 72 h
Caco-2 [7] = experiment: as above; details: 72 h
U2OS [8] = experiment: as above; details: 72 h
Vero E6 [9] = experiment: cell viability relative to DMSO; higher = less toxic; details: 72 h
HepG2 [10] = experiment: as above; details: 72 h
Calu-3 [11] = experiment: as above; details: 72 h
Caco-2 [12] = experiment: as above; details: 72 h
U2OS [13] = experiment: as above; details: 72 h
[14] = system: A549-ACE2 infected with SARS-CoV-2; experiment: morphology score (similarity to uninfected cells); higher = more like uninfected cells; details: 24 h
Calu-3 [15] = experiment: relative viability EC50 (midpoint between 100% and the lowest measured viability); higher = less toxic; details: 72 h
Caco-2 [16] = experiment: as above; details: 72 h
U2OS [17] = experiment: as above; details: 72 h
[18] = system: A549-ACE2 infected with SARS-CoV-2; experiment: SARS-CoV-2 infection rate relative to DMSO; higher = more infection; details: 24 h
Vero E6 [19] = experiment: relative viability EC50 (midpoint between 100% and the lowest measured viability); higher = less toxic; details: 72 h
HepG2 [20] = experiment: as above; details: 72 h

Oc1ccc2c3c1O[C@H]1c4c(c5ccccc5n4Cc4ccccc4)C[C@@]4(O)[C@@H](C2)N(CC2CC2)CC[C@]314 [N-benzylnaltrindole]
Details	SARS-CoV-2 infection rate [%]	cell count [%]	cell viability [%]	morphology score	phospholipidosis EC50 [nM]
A549-ACE2 [3], 24 h	–	–	–	–	2620
A549-ACE2 [3], 48 h	–	–	–	–	4610
A549-ACE2 [3], 72 h	–	–	–	–	6760
Caco-2 [12], 1 nM	–	–	88.7	–	–
Caco-2 [12], 10 nM	–	–	99.7	–	–
Caco-2 [12], 100 nM	–	–	88.5	–	–
Caco-2 [12], 1000 nM	–	–	99	–	–
Caco-2 [12], 10000 nM	–	–	86.9	–	–
Calu-3 [11], 1 nM	–	–	96.9	–	–
Calu-3 [11], 10 nM	–	–	99.8	–	–
Calu-3 [11], 100 nM	–	–	106	–	–
Calu-3 [11], 1000 nM	–	–	100	–	–
Calu-3 [11], 10000 nM	–	–	38.9	–	–
HepG2 [10], 1 nM	–	–	102	–	–
HepG2 [10], 10 nM	–	–	98.9	–	–
HepG2 [10], 100 nM	–	–	103	–	–
HepG2 [10], 1000 nM	–	–	100	–	–
HepG2 [10], 10000 nM	–	–	54.8	–	–
U2OS [13], 1 nM	–	–	94.9	–	–
U2OS [13], 10 nM	–	–	102	–	–
U2OS [13], 100 nM	–	–	95.9	–	–
U2OS [13], 1000 nM	–	–	102	–	–
U2OS [13], 10000 nM	–	–	89.1	–	–
Vero E6 [9], 1 nM	–	–	100	–	–
Vero E6 [9], 10 nM	–	–	96	–	–
Vero E6 [9], 100 nM	–	–	95.1	–	–
Vero E6 [9], 1000 nM	–	–	96.2	–	–
Vero E6 [9], 10000 nM	–	–	70.1	–	–
[1], 0.1 µM	–	100	–	–	–
[1], 0.3 µM	–	101	–	–	–
[1], 1 µM	–	104	–	–	–
[1], 3 µM	–	108	–	–	–
[14], 0.1 µM	–	–	–	0.1	–
[14], 0.3 µM	–	–	–	0.1	–
[14], 1 µM	–	–	–	0.24	–
[14], 3 µM	–	–	–	0.47	–
[18], 0.1 µM	96	–	–	–	–
[18], 0.3 µM	94	–	–	–	–
[18], 1 µM	90	–	–	–	–
[18], 3 µM	69	–	–	–	–

drug-induced phospholipidosis [%], A549-ACE2 [2]
Details	0.3 µM	0.833333 µM	3.33333 µM	6.66667 µM	10 µM	30 µM
24 h	4.31	4.24	48.7	70.1	59	26.2
48 h	5.61	4.16	44.9	83.7	102	–
72 h	4.1	4.23	35.4	81.8	111	–

Details	drug sensitivity score	relative viability EC50 [nM]
Caco-2 [7]	0	–
Caco-2 [16]	–	> 10000
Calu-3 [6]	3.3	–
Calu-3 [15]	–	3190
HepG2 [5]	2.3	–
U2OS [8]	0	–
U2OS [17]	–	> 10000
Vero E6 [4]	1.9	–

C[C@@H]1COCCN1c1cc(=O)n2c(n1)N(Cc1cncc(Cl)c1)[C@H](C(F)(F)F)CC2 [SAR405]
Details	SARS-CoV-2 infection rate, [18] [%]	cell count, [1] [%]	cell viability, Caco-2 [12] [%]	cell viability, Calu-3 [11] [%]	cell viability, HepG2 [10] [%]	cell viability, U2OS [13] [%]	cell viability, Vero E6 [9] [%]	morphology score, [14]
1 nM	–	–	84.5	99.7	98.1	97.4	105	–
10 nM	–	–	91.1	97.3	105	96.8	108	–
0.1 µM	94	105	–	–	–	–	–	0.11
100 nM	–	–	80.6	109	101	99.2	104	–
0.3 µM	88	102	–	–	–	–	–	0.09
1 µM	58	114	–	–	–	–	–	0.48
1000 nM	–	–	59.7	104	76.9	96.3	96.9	–
3 µM	31	104	–	–	–	–	–	0.5
10000 nM	–	–	76.3	88.6	55.5	68.9	63.8	–

drug-induced phospholipidosis [%], A549-ACE2 [2]
Details	0.3 µM	0.833333 µM	3.33333 µM	6.66667 µM	10 µM	30 µM
24 h	-2.02	-6.84	10.5	23.4	28.8	39.3
48 h	1.08	-10.5	7.2	36.3	–	–
72 h	3.73	-7.79	5.27	–	–	–

Details	drug sensitivity score	relative viability EC50 [nM]
Caco-2 [7]	8.1	–
Calu-3 [6]	0	–
Calu-3 [15]	–	> 10000
HepG2 [5]	5.2	–
U2OS [8]	2	–
Vero E6 [4]	2.2	–

CNCc1ccc(-c2cc(-c3nc(-c4ccc(S(=O)(=O)C(C)C)cc4)cnc3N)on2)cc1 [VE-822]
Details	SARS-CoV-2 infection rate [%]	cell count [%]	cell viability [%]	morphology score	phospholipidosis EC50 [nM]
A549-ACE2 [3], 24 h	–	–	–	–	1160
A549-ACE2 [3], 48 h	–	–	–	–	3020
A549-ACE2 [3], 72 h	–	–	–	–	2970
Caco-2 [12], 1 nM	–	–	104	–	–
Caco-2 [12], 10 nM	–	–	103	–	–
Caco-2 [12], 100 nM	–	–	103	–	–
Caco-2 [12], 1000 nM	–	–	92.8	–	–
Caco-2 [12], 10000 nM	–	–	49.3	–	–
Calu-3 [11], 1 nM	–	–	96.5	–	–
Calu-3 [11], 10 nM	–	–	93.2	–	–
Calu-3 [11], 100 nM	–	–	93.4	–	–
Calu-3 [11], 1000 nM	–	–	106	–	–
Calu-3 [11], 10000 nM	–	–	90	–	–
HepG2 [10], 1 nM	–	–	111	–	–
HepG2 [10], 10 nM	–	–	99	–	–
HepG2 [10], 100 nM	–	–	94	–	–
HepG2 [10], 1000 nM	–	–	53.3	–	–
HepG2 [10], 10000 nM	–	–	19.1	–	–
U2OS [13], 1 nM	–	–	101	–	–
U2OS [13], 10 nM	–	–	104	–	–
U2OS [13], 100 nM	–	–	96	–	–
U2OS [13], 1000 nM	–	–	89.9	–	–
U2OS [13], 10000 nM	–	–	67.4	–	–
Vero E6 [9], 1 nM	–	–	94.8	–	–
Vero E6 [9], 10 nM	–	–	95.7	–	–
Vero E6 [9], 100 nM	–	–	97.2	–	–
Vero E6 [9], 1000 nM	–	–	85.1	–	–
Vero E6 [9], 10000 nM	–	–	2.1	–	–
[1], 0.1 µM	–	107	–	–	–
[1], 0.3 µM	–	110	–	–	–
[1], 1 µM	–	128	–	–	–
[1], 3 µM	–	118	–	–	–
[14], 0.1 µM	–	–	–	0.32	–
[14], 0.3 µM	–	–	–	0.31	–
[14], 1 µM	–	–	–	0.57	–
[14], 3 µM	–	–	–	0.55	–
[18], 0.1 µM	89	–	–	–	–
[18], 0.3 µM	89	–	–	–	–
[18], 1 µM	51	–	–	–	–
[18], 3 µM	25	–	–	–	–

drug-induced phospholipidosis [%], A549-ACE2 [2]
Details	0.3 µM	0.833333 µM	3.33333 µM	6.66667 µM	10 µM	30 µM
24 h	13.9	27.3	86.2	113	119	42.3
48 h	14.2	28	89.1	124	148	62.7
72 h	16.7	20.1	102	143	163	63.3

Details	drug sensitivity score	relative viability EC50 [nM]
Caco-2 [7]	3.9	–
Caco-2 [16]	–	2040
Calu-3 [6]	0	–
Calu-3 [15]	–	> 10000
HepG2 [5]	10.1	–
HepG2 [20]	–	779
U2OS [8]	2.6	–
Vero E6 [4]	7.9	–
Vero E6 [19]	–	1970
